Laboratory results as given in patent US9382197B2, “Substituted hydroxamic acids and uses thereof” (Millennium Pharmaceuticals, Inc., priority 2010, dated 2016).

Molecular target: T1, purified human HDAC6 (Homo sapiens, UniProt Q9UBN7)
T1 construct: purchased BPS Bioscience 5006
T1 sequence (Q9UBN7 1-1215): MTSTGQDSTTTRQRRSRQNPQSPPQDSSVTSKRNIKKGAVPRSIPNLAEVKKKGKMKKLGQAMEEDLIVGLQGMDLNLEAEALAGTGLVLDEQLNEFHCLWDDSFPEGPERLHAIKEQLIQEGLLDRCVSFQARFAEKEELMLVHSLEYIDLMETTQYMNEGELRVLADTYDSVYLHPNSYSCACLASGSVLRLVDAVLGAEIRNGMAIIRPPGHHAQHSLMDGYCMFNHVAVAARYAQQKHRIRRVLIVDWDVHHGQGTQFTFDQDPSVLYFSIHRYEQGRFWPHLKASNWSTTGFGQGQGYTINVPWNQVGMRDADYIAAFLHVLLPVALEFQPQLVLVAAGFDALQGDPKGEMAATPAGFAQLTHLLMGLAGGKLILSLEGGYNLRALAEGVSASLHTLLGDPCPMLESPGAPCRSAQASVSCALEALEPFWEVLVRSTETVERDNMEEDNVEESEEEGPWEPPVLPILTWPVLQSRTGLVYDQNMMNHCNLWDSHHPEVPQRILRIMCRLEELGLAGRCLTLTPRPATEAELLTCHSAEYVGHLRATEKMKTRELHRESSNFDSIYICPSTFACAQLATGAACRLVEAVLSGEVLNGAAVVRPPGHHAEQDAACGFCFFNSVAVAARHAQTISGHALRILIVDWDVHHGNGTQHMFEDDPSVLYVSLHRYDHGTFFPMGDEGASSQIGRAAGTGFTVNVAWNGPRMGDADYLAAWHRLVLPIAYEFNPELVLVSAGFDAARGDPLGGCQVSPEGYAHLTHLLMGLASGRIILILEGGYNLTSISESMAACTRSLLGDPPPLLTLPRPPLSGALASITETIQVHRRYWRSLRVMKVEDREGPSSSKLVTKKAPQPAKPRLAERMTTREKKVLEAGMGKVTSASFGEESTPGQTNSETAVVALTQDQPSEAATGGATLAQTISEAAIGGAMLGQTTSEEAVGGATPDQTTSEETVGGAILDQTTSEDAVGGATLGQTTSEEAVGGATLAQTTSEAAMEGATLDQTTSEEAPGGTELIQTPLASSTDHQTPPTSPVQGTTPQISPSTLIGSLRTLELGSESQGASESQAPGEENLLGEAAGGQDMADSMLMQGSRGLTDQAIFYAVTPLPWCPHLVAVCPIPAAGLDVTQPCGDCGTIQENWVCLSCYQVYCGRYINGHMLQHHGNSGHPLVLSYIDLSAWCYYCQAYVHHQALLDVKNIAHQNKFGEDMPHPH
Assay: HDAC6 Enzyme Assay
Assay type: biochemical
Outline: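 Deacetylated product quantified after trypsin digestion as released AMC (340/460 nm), following a 1 h, 30 °C reaction of human HDAC6 with Ac-RGK(Ac)-AMC peptide, quenched by trichostatin A. IC50 derived from DMSO-normalized curves.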

[1] = purified human HDAC6, substrate Ac-Arg-Gly-Lys(Ac)-AMC, 1 hour at 30° C., reported as bins
[2] = bin: greater than 500 nM and less than 1 μM (lower bound in nM, upper bound in μM)

IC50 [1] [nM] | IC50 (bin: greater than 1 μM) [nM] | other results | SMILES
100 to 500 |  |  | CC(NS(=O)(=O)c1ccc(Cl)cc1)c1ccc(C(=O)NO)cc1 (centres unmarked) [Compound I-302, 4-(1-{[(4-chlorophenyl)sulfonyl]amino}ethyl)-N-hydroxybenzamide]
 |  | IC50 [2]: 500 to 1000 nM | CC(C)(C)C(NC(=O)c1ccc(C(F)(F)F)cc1)c1ccc(C(=O)NO)cc1 (centres unmarked) [Compound I-303, 4-(2,2-dimethyl-1-{[4-(trifluoromethyl)benzoyl]amino}propyl)-N-hydroxybenzamide]
< 100 |  |  | Cc1c(C(=O)N[C@@H](c2ccc(C(=O)NO)cc2)C(F)(F)F)oc2ccccc12 [Compound I-304, 3-methyl-N-((1S)-2,2,2-trifluoro-1-{4-[(hydroxyamino)carbonyl]phenyl}ethyl)-1-benzofuran-2-carboxamide]
100 to 500 |  |  | Cc1onc(-c2ccccc2)c1NC(=O)NC(C)c1ccc(C(=O)NO)cc1 (centres unmarked) [Compound I-305, N-hydroxy-4-[1-({[(5-methyl-3-phenylisoxazol-4-yl)amino]carbonyl}amino)ethyl]benzamide]
< 100 |  |  | COc1cccc2cc(C(=O)NC(c3ccc(C(=O)NO)cc3)C(C)C)oc12 (centres unmarked) [Compound I-306, N-(1-{4-[(hydroxyamino)carbonyl]phenyl}-2-methylpropyl)-7-methoxy-1-benzofuran-2-carboxamide]
< 100 |  |  | Cc1c(C(=O)N[C@@H](c2ccc(C(=O)NO)cc2)C(C)C)sc2ccccc12 [Compound I-307, N-((1R)-1-{4-[(hydroxyamino)carbonyl]phenyl}-2-methylpropyl)-3-methyl-1-benzothiophene-2-carboxamide]
< 100 |  |  | CC(C)(C)C(NC(=O)c1cc2ccccc2s1)c1ccc(C(=O)NO)cc1 (centres unmarked) [Compound I-308, N-(1-{4-[(hydroxyamino)carbonyl]phenyl}-2,2-dimethylpropyl)-1-benzothiophene-2-carboxamide]
 |  | IC50 [2]: 500 to 1000 nM | CC(NC(=O)c1cc(C(C)(C)C)nn1C)c1cccc(C(=O)NO)c1 (centres unmarked) [Compound I-309, 3-tert-butyl-N-(1-{3-[(hydroxyamino)carbonyl]phenyl}ethyl)-1-methyl-1H-pyrazole-5-carboxamide]
100 to 500 |  |  | Cc1cc(C(=O)NC(c2ccc(C(=O)NO)cc2)C(C)(C)C)c(C)[nH]1 (centres unmarked) [Compound I-310, N-(1-{4-[(hydroxyamino)carbonyl]phenyl}-2,2-dimethylpropyl)-2,5-dimethyl-1H-pyrrole-3-carboxamide]
 | > 1000 |  | CC(NC(=O)C1CCCC1)c1cccc(C(=O)NO)c1 (centres unmarked) [Compound I-311, 3-{1-[(cyclopentylcarbonyl)amino]ethyl}-N-hydroxybenzamide]
 | > 1000 |  | C[C@@H](NC(=O)C12CC3CC(CC(C3)C1)C2)c1cccc(C(=O)NO)c1 [Compound I-312, N-((1R)-1-{3-[(hydroxyamino)carbonyl]phenyl}ethyl)adamantane-1-carboxamide]
 | > 1000 |  | CC(NC(=O)CC1CCOCC1)c1ccc(C(=O)NO)cc1 (centres unmarked) [Compound I-313, N-hydroxy-4-{1-[(tetrahydro-2H-pyran-4-ylacetyl)amino]ethyl}benzamide]
 | > 1000 |  | CC(NC(=O)Cc1cccc(C(F)(F)F)c1)c1cccc(C(=O)NO)c1 (centres unmarked) [Compound I-314, N-hydroxy-3-[1-({[3-(trifluoromethyl)phenyl]acetyl}amino)ethyl]benzamide]
100 to 500 |  |  | CC(NS(=O)(=O)c1ccccc1)c1ccc(C(=O)NO)cc1 (centres unmarked) [Compound I-315, N-hydroxy-4-{1-[(phenylsulfonyl)amino]ethyl}benzamide]
100 to 500 |  |  | Cc1cccc(CNC(=O)NC(C)c2ccc(C(=O)NO)cc2)c1 (centres unmarked) [Compound I-316, N-hydroxy-4-[1-({[(3-methylbenzyl)amino]carbonyl}amino)ethyl]benzamide]
< 100 |  |  | C[C@@H](NC(=O)c1cc2ccccc2o1)c1ccc(C(=O)NO)cc1 [Compound I-317, N-((1R)-1-{4-[(hydroxyamino)carbonyl]phenyl}ethyl)-1-benzofuran-2-carboxamide]

IC50 [1] [nM] | IC50 (bin: greater than 1 μM) [nM] | other results | SMILES
100 to 500 |  |  | CCc1cc(C(=O)NC(c2ccc(C(=O)NO)cc2)C(C)(C)C)n(C)n1 (centres unmarked) [Compound I-318, 3-ethyl-N-(1-{4-[(hydroxyamino)carbonyl]phenyl}-2,2-dimethylpropyl)-1-methyl-1H-pyrazole-5-carboxamide]
< 100 |  |  | CC(C)(C)C(NC(=O)c1c[nH]c2ccccc12)c1ccc(C(=O)NO)cc1 (centres unmarked) [Compound I-319, N-(1-{4-[(hydroxyamino)carbonyl]phenyl}-2,2-dimethylpropyl)-1H-indole-3-carboxamide]
 | > 1000 |  | C[C@@H](NC(=O)NC(C)(C)C)c1cccc(C(=O)NO)c1 [Compound I-320, 3-((1R)-1-{[(tert-butylamino)carbonyl]amino}ethyl)-N-hydroxybenzamide]
< 100 |  |  | C[C@@H](NC(=O)c1cc2ccccc2s1)c1cccc(C(=O)NO)c1 [Compound I-321, N-((1R)-1-{3-[(hydroxyamino)carbonyl]phenyl}ethyl)-1-benzothiophene-2-carboxamide]
 | > 1000 |  | O=C(NO)c1ccc([C@@H](NC(=O)C23CC4CC(CC(C4)C2)C3)C2CC2)cc1 [Compound I-322, N-((S)-cyclopropyl{4-[(hydroxyamino)carbonyl]phenyl}methyl)adamantane-1-carboxamide]
 | > 1000 |  | CC(C)C(NC(=O)c1ccc(-c2ccccc2)cc1)c1cccc(C(=O)NO)c1 (centres unmarked) [Compound I-323, N-(1-{3-[(hydroxyamino)carbonyl]phenyl}-2-methylpropyl)biphenyl-4-carboxamide]
 | > 1000 |  | CC(NC(=O)c1cc2oc(-c3ccc(C(C)(C)C)cc3)cc2n1C)c1cccc(C(=O)NO)c1 (centres unmarked) [Compound I-324, 2-(4-tert-butylphenyl)-N-(1-{3-[(hydroxyamino)carbonyl]phenyl}ethyl)-4-methyl-4H-furo[3,2-b]pyrrole-5-carboxamide]
 | > 1000 |  | Cc1noc(C)c1C(=O)NC(C)c1ccc(C(=O)NO)cc1 (centres unmarked) [Compound I-326, N-(1-{4-[(hydroxyamino)carbonyl]phenyl}ethyl)-3,5-dimethylisoxazole-4-carboxamide]
< 100 |  |  | CC(NC(=O)c1ccc2ccccc2c1)c1ccc(C(=O)NO)cc1 (centres unmarked) [Compound I-327, N-(1-{4-[(hydroxyamino)carbonyl]phenyl}ethyl)-2-naphthamide]
< 100 |  |  | CC(C)[C@@H](NC(=O)C12CC3CC(CC(C3)C1)C2)c1ccc(C(=O)NO)cc1 [Compound I-328, N-((1R)-1-{4-[(hydroxyamino)carbonyl]phenyl}-2-methylpropyl)adamantane-1-carboxamide]
< 100 |  |  | Cc1ccc2[nH]c(C(=O)NC(c3ccc(C(=O)NO)cc3)C(C)(C)C)c(C)c2c1 (centres unmarked) [Compound I-329, N-(1-{4-[(hydroxyamino)carbonyl]phenyl}-2,2-dimethylpropyl)-3,5-dimethyl-1H-indole-2-carboxamide]
100 to 500 |  |  | C[C@@H](NC(=O)c1cc2ccccc2n1C)c1cccc(C(=O)NO)c1 [Compound I-330, N-((1R)-1-{3-[(hydroxyamino)carbonyl]phenyl}ethyl)-1-methyl-1H-indole-2-carboxamide]
100 to 500 |  |  | CC(C)C(NC(=O)c1cccc2ccccc12)c1ccc(C(=O)NO)cc1 (centres unmarked) [Compound I-331, N-(1-{4-[(hydroxyamino)carbonyl]phenyl}-2-methylpropyl)-1-naphthamide]
< 100 |  |  | CC(C)[C@@H](NC(=O)c1cc2oc(-c3ccccc3)cc2n1C)c1ccc(C(=O)NO)cc1 [Compound I-332, N-((1R)-1-{4-[(hydroxyamino)carbonyl]phenyl}-2-methylpropyl)-4-methyl-2-phenyl-4H-furo[3,2-b]pyrrole-5-carboxamide]
 | > 1000 |  | CC(NC(=O)CC(C)(C)C)c1cccc(C(=O)NO)c1 (centres unmarked) [Compound I-333, 3-{1-[(3,3-dimethylbutanoyl)amino]ethyl}-N-hydroxybenzamide]
< 100 |  |  | CC(NC(=O)Nc1cc(C(F)(F)F)ccc1F)c1ccc(C(=O)NO)cc1 (centres unmarked) [Compound I-334, 4-{1-[({[2-fluoro-5-(trifluoromethyl)phenyl]amino}carbonyl)amino]ethyl}-N-hydroxybenzamide]
